Reference: PMC8123555, “Precision targeting of the plasminogen activator inhibitor‐1 mechanism increases efficacy of fibrinolytic therapy in empyema” (Physiological Reports, 2021)

Legend:
[1] = system: chemically induced (TCN) pleural injury; assay: Fibrinolytic therapy of TCN-induced pleural injury in rabbits (GLIS, pleural thickening); assay type: in vivo, rabbit; conditions: outcome at 24 h
Source text: All animal procedures were approved by the Institutional Animal Care and Use Committee at The University of Texas Health Science Center at Tyler (IACUC protocols 499,616,617). Studies used female, pathogen‐free New Zealand white rabbits (3.0–3.6 kg; average age 18 weeks) from Charles River Laboratories (Wilmington, MA). These studies required a total of 107 rabbits, 43 for the model of TCN‐induced pleural injury and 64 for the model of empyema. […] Accumulation of pleural fluid and fibrin deposition was monitored using ultrasonography; detailed in the ultrasonography subsection. […] Animals were monitored carefully for signs of distress, pain, and worsening clinical status. […]
Development of pleural injury was monitored via ultrasonography. […]
For each animal, gross lung injury scores (GLIS) were calculated as previously described (Florova et al., 2015; Karandashova et al., 2013; Komissarov et al., 2013). […] Pleural thickening was measured using morphometry, as previously described (Komissarov et al., 2016).

[2] = system: Streptococcus pneumoniae induced empyema; assay: Fibrinolytic therapy of S. pneumoniae induced empyema in rabbits (GLIS, pleural thickening, WBC differential); assay type: in vivo, rabbit
Experimental: All animal procedures were approved by the Institutional Animal Care and Use Committee at The University of Texas Health Science Center at Tyler (IACUC protocols 499,616,617). Studies used female, pathogen‐free New Zealand white rabbits (3.0–3.6 kg; average age 18 weeks) from Charles River Laboratories (Wilmington, MA). These studies required a total of 107 rabbits, 43 for the model of TCN‐induced pleural injury and 64 for the model of empyema. […] Briefly, a 3 ml mixture of TCN in ascorbic acid (20 mg/ml TCN (T3258, Sigma‐Aldrich), 2.5 mg/ml ascorbic acid (A7506, Sigma‐Aldrich) and lidocaine (1 mg/ml, UTHCT Compounding Pharmacy), was delivered by intrapleural injection. A model of acute empyema in rabbits was induced as described previously (Komissarov et al., 2016). Briefly, 1–5 × 10^8 cfu of S. pneumoniae (D39 strain, National Collection of Type Cultures, Salisbury UK) in 3 ml of 0.5% brain‐heart infusion agar (BD 238400, BD Diagnostic Systems) was delivered by intrapleural injection. Clavomox (10 mg/kg, subcutaneous, daily for 1–3 days as clinically indicated by Attending Veterinarian) (10000485, Zoetis) was started at 28–30 h post‐infection. Accumulation of pleural fluid and fibrin deposition was monitored using ultrasonography; detailed in the ultrasonography subsection. After 48 or 72 h for TCN‐induced pleural injury and empyema, respectively, intrapleural therapeutics were administered depending on treatment group via an 18‐gauge catheter, which was flushed with 0.5 ml PBS. In all experiments, samples of pleural fluids (0.5 ml) from each rabbit were collected prior to and at 10, 20, and 40 min after PAI‐1‐TFT and processed for later analysis (Florova et al., 2015; Karandashova et al., 2013; Komissarov et al., 2013, 2016). Anesthesia, postoperative pain medication, and animal care were provided as reported previously (Florova et al., 2015; Karandashova et al., 2013; Komissarov et al., 2013, 2016). with details provided in the supplement. Animals were monitored carefully for signs of distress, pain, and worsening clinical status. Euthanasia was accomplished using intravenous injection of 1 ml of commercial euthanasia solution (sodium pentobarbital 390 mg/ml and phenytoin 50 mg/ml) followed by exsanguination.
Development of pleural injury was monitored via ultrasonography. Briefly, B‐mode ultrasonography of the chest was performed (Komissarov et al., 2013, 2015) using a Logiq e system (GE Healthcare, Milwaukee, WI) using R5.2.x software and a multifrequency transducer model 12L‐RS at a working frequency of 10 MHz, as previously described (Komissarov et al., 2016).
For each animal, gross lung injury scores (GLIS) were calculated as previously described (Florova et al., 2015; Karandashova et al., 2013; Komissarov et al., 2013). PAI‐1‐TFT was considered successful when GLIS ≤10. Multiple fibrin webs or sheets connecting the visceral and parietal pleura or “too numerous to count” (TNTC) strands and a fibrinous lung coating correlated with a GLIS = 50. Pleural thickening was measured using morphometry, as previously described (Komissarov et al., 2016).

FITC‐fibrin [3] = assay: Fibrinolytic activity in pleural fluids (FITC-fibrin film assay), TCN-induced injury; assay type: in vivo, rabbit; conditions: PAI-1-TFT with 2.0 mg/kg DSP, chemically induced injury; for Steady-state level of pleural fluid fibrinolytic activity: relative to supplemented baseline
Experimental: (§1) A Pilot Fibrinolytic Assay (FPA96F) was used to measure fibrinolytic potential (Beckert et al., 2019; Florova et al., 2015) and fibrinolytic activity (Florova et al., 2015, 2018; Komissarov et al., 2016) in pleural fluid samples. To prepare a FITC‐fibrin film, a 1:1 mixture of FITC‐tagged and unlabeled fibrinogen (0.4 mg/ml) in 0.05 M Hepes/NaOH (pH 7.5, 130 mM NaCl, 5 mM CaCl2) buffer at room temperature was transferred to black 96‐well flat bottom plates from Costar (Corning Inc, NY). Human thrombin (final concentration 10 nM) was added to each well and plates were dried overnight in a dark chemical hood at room temperature. 96‐well plates with FITC‐fibrin film were washed three times with 0.3 ml of cold Hepes/NaOH buffer and stored at −20°C up to one year. Fibrinolytic activity in pleural fluids was calculated from the slopes of time‐dependences of an increase in the fluorescence emission at 512 nm (excitation at 490 nm) due to the degradation of FITC‐fibrin. Fibrinolytic potential was determined as the difference between fibrinolytic activity in samples of pleural fluid at baseline (BL) or 24 h measured with and without supplementation with sctPA (Florova et al., 2015). To determine whether PAI‐1‐TFT affects fibrinolytic potential in rabbits, BL values were plotted against fibrinolytic potential at 24 h and the linear correlation was determined using Sigmaplot 14.0.

FITC‐fibrin [4] = assay: Fibrinolytic activity in pleural fluids (FITC-fibrin film assay), empyema; assay type: in vivo, rabbit; conditions: PAI-1-TFT with 2.0 mg/kg DSP, infectious pleural injury; for Steady-state level of pleural fluid fibrinolytic activity: relative to supplemented baseline
Experimental: as §1

[5] = system: Streptococcus pneumoniae induced empyema; conditions: higher in empyema; ref Idell et al., 2007; cited from earlier work
Source text: (§2) Plasminogen Activator Inhibitor‐1 (PAI‐1) is a mechanism‐based inhibitor of tissue type (tPA) and urokinase (uPA) plasminogen activators (PAs) (Carrell et al., 1991; Chaillan‐Huntington et al., 1997; Mourik et al., 1984) used for fibrinolytic therapy. Levels of PAI‐1 increase by up to three orders of magnitude in empyema (pleural sepsis), and organizing pleural injury (Aleman et al., 2003; Chung et al., 2005; Philip‐Joet et al., 1995), limiting endogenous and exogenous plasminogen activating activity that could help prevent or treat uncontrolled fibrin deposition induced by inflammation. First, DSP alone was used to treat pleural injury in both models to determine its effects on the endogenous fibrinolytic system. The results (Figure 2) clearly indicate that even a relatively high dose of DSP (2.0 mg/kg) is insufficient to mobilize endogenous fibrinolysis effectively once pleural injury has developed; there was no reversal effect with DSP alone. DSP alone, even at a 4‐fold higher dose (8.0 mg/kg), was also ineffective (GLIS>10) in treatment of empyema (Figure 2). Next, PAI‐1‐TFT with ...

[6] = system: chemically induced (TCN) pleural injury; conditions: bolus, ref Idell et al., 2007; cited from earlier work
Source text: as §2

[7] = plasminogen activator 0.5 mg/kg alone, empyema

Substance | Gross lung injury score (GLIS) ([1]; sctPA 72.5 µg/kg alone (1/2 of MED), n = 5) | Outcome of fibrinolytic therapy (GLIS) [2, 7] | Outcome of fibrinolytic therapy (GLIS) ([2]; sctPA 0.25 mg/kg alone, acute empyema) | GLIS of representative animal ([2]; sctPA 0.25 mg/kg alone, photograph 24 h after treatment) | Minimal effective dose (MED) of sctPA with DSP ([2]; with 8.0 mg/kg DSP, acute empyema) [mg/kg] | kobs of decrease in pleural fluid fibrinolytic activity to steady state (FITC‐fibrin [3]) [min⁻¹] | Steady-state level of pleural fluid fibrinolytic activity (FITC‐fibrin [3]) [%] | kobs of decrease in pleural fluid fibrinolytic activity to steady state (FITC‐fibrin [4]) [min⁻¹] | Steady-state level of pleural fluid fibrinolytic activity (FITC‐fibrin [4]) [%] | MED for empyema relative to MED in TCN-induced pleural injury [5] [fold] | Minimal effective dose (MED) of plasminogen activator alone [6] [mg/kg] | Gross lung injury score (GLIS) ([1]; scuPA 62.5 µg/kg alone (1/8 of MED), n = 6)
Alteplase [sctPA, reference compound] | > 10 | ineffective | ineffective | 50 | 0.25 | 0.40 ± 0.11 | 2.7 | 0.48 ± 0.07 | 1.5 | 13.8 | 0.145 | 
Prourokinase [scuPA] |  | ineffective |  |  |  | 0.09 ± 0.06 | 5.6 | 0.16 ± 0.06 | 2.5 | 4 | 0.5 | > 10
